{"source": "patent US7531312B2", "about": "“Simplified biological evaluation method of natural and artificial chemicals by using DNA injury index and apparatus therefor” (TAS Project Co., Ltd., priority 2000, dated 2009)", "key": {"2′-deoxyguanosine (dG) [1]": {"system": "2′-deoxyguanosine (dG)", "assay": "8OHdG produced from dG with test substance and coexisting bisphenol A, standing or UV (Example 9)", "type": "biochemical", "experimental": "170 μl portions of ultrapure water and predetermined concentrations of vitamin C (VC), vitamin E (VE), and glucose (Glu) as test substance were added to each well of two […] plastic plates and, as additional solution, 20 μl of ultrapure water or predetermined concentration of bisphenol A (BPA) were injected into each well."}, "2′-deoxyguanosine (dG) [2]": {"system": "2′-deoxyguanosine (dG)", "assay": "8OHdG produced from added dG, standing at room temperature or UV irradiation (Examples 1-7);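 on all read-outs here: Cell-free test: dG in test solution, held at room temperature or exposed to 254 nm UV, then 8OHdG quantified by HPLC with electrochemical detection, compared against dG in ultrapure water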", "conditions": "for evaluation in words: oxidation induction or antioxidant ability toward dG: conclusions of Examples 2-7; for 8OHdG concentration, UV irradiation 60 minutes: ultrapure water 0.392; for 8OHdG concentration, UV irradiation 90 minutes: ultrapure water 0.901; for 8OHdG concentration, UV irradiation 120 minutes: ultrapure water 1.183", "method": "Separately, the amount of 8OHdG after an ultrapure water solution of dG is left to stand under the same conditions as above for a predetermined time is measured (this value is defined as B). If A is greater than B, the test substance is evaluated to have oxidation induction ability and conversely if A is smaller than B, the test substance is evaluated to have antioxidant ability. In either case, it is judged that the greater the difference is, the greater degree of oxidation induction ability or antioxidant capability the test substance has.\nThen, 20 μl of 200 μg/ml dG (dissolved in ultrapure water) was added to each well and one of the plates was left to stand as it was at room temperature for 90 minutes and the other plate was irradiated with UV light (254 nm, 860 μW/cm^2) for 90 minutes in a UV light irradiation box. […] Subsequently, nucleosides in the both were quantified by use of the UV light absorption analyzer connected to the HPLC and the electrochemical detector.\nSolutions of predetermined concentrations of vitamin C (VC), vitamin E (VE), catechin (Cate) and tannic acid (Tan) were prepared and 180 μl portions were injected into each well of two 99-well plastic plates. Then, 20 μl of 200 μg/ml dG (dissolved in ultrapure water) was added to each well and one of the plates was left to stand as it was at room temperature for 90 minutes and the other plate was irradiated with UV light (254 nm, 860 μW/cm^2) for 90 minutes in a UV light irradiation box.\nThen, 20 μl of 200 μg/ml dG (dissolved in ultrapure water) was added to each well and one of the plates was left to stand as it was at room temperature for 90 minutes and another plate was left to stand similarly at room temperature for 24 hours. The remaining three plates were irradiated with UV light (254 nm, 860 μW/cm^2) for 60 minutes, 90 minutes and 120 minutes, respectively, in a UV light irradiation box.\nSolutions of predetermined concentrations of glucose (Glu), raffinose (Raffi) and sucrose (Suc) were prepared and 180 μl portions thereof were injected into each well of four 99-well plastic plates. Then, 20 μl of 200 μg/ml dG (dissolved in ultrapure water) was added to each well and one of the plates was left to stand as it was at room temperature for 90 minutes. The remaining three plates were irradiated with UV light (254 nm, 860 μW/cm^2) for 60 minutes, 90 minutes and 120 minutes, respectively, in a UV light irradiation box.\nThen, 20 μl of 200 μg/ml dG (dissolved in ultrapure water) was added to each well and one of the plates was left to stand as it was at room temperature for 90 minutes and the other plate was irradiated with UV light (254 nm, 860 μW/cm^2) for 90 minutes in a UV light irradiation box.\nSolutions of various concentrations of uric acid (dissolving fluid: distilled water+0.025% FBS) were prepared and 180 μl portions thereof were injected into each well of two 99-well plastic plates. Then, 20 μl of 200 μg/ml dG (dissolved in ultrapure water) was added to each well and one of the plates was left to stand as it was at room temperature for 90 minutes and the other plate was irradiated with UV light (254 nm, 860 μW/cm^2) for 90 minutes in a UV light irradiation box."}, "[3]": {"conditions": "test substance 0.001%, additional solution ultrapure water"}, "[4]": {"conditions": "1 μg/ml, Table 2, distilled water 0.15"}, "[5]": {"conditions": "10 μg/ml, Table 2, distilled water 0.15"}}, "note": "Entries after “also recorded” stand apart in the source; their conditions may differ."}
{"compound": "O=C1O[C@H]([C@@H](O)CO)C(O)=C1O", "note": "[VC, ascorbic acid]", "values": [{"measurement": "effect on 8OHdG with BPA and UV light irradiation", "setting": "2′-deoxyguanosine (dG) [1]; Example 9", "value": "does not cancel the induction of 8OHdG by BPA"}, {"measurement": "8OHdG concentration, 90 Minutes' UV irradiation", "setting": "2′-deoxyguanosine (dG) [1]; test substance 0.00001%, additional solution BPA (50 ppm), BPA alone 11.58", "value": 14.96, "unit": "ng/mL"}, {"measurement": "8OHdG concentration, 90 Minutes' UV irradiation", "setting": "2′-deoxyguanosine (dG) [1]; test substance 0.0001%, additional solution BPA (50 ppm), BPA alone 11.58", "value": 15.95, "unit": "ng/mL"}, {"measurement": "8OHdG concentration, 90 Minutes' standing", "setting": "2′-deoxyguanosine (dG) [1]; test substance 0.001%, additional solution BPA (50 ppm), BPA alone 0.22", "value": 1.51, "unit": "ng/mL"}, {"measurement": "8OHdG concentration, 90 Minutes' UV irradiation", "setting": "2′-deoxyguanosine (dG) [1]; test substance 0.001%, additional solution BPA (50 ppm), BPA alone 11.58", "value": 12.53, "unit": "ng/mL"}, {"measurement": "8OHdG concentration, 90 Minutes' UV irradiation", "setting": "2′-deoxyguanosine (dG) [1]; [3]", "value": 5.75, "unit": "ng/mL"}, {"measurement": "8OHdG concentration, 90 Minutes' standing", "setting": "2′-deoxyguanosine (dG) [1]; [3]", "value": 16.3, "unit": "ng/mL"}, {"measurement": "8OHdG concentration, 90 Minutes' standing", "setting": "2′-deoxyguanosine (dG) [2]; 0.00001%, Table 2, distilled water 0.15", "value": 0.44, "unit": "ng/mL"}, {"measurement": "8OHdG concentration, 90 Minutes' UV irradiation", "setting": "2′-deoxyguanosine (dG) [2]; 0.00001%, Table 2, distilled water 1.23", "value": 0.46, "unit": "ng/mL"}, {"measurement": "8OHdG concentration, 90 Minutes' standing", "setting": "2′-deoxyguanosine (dG) [2]; 0.0001%, Table 2, distilled water 0.15", "value": 0.63, "unit": "ng/mL"}, {"measurement": "8OHdG concentration, 90 Minutes' UV irradiation", "setting": "2′-deoxyguanosine (dG) [2]; 0.0001%, Table 2, distilled water 1.23", "value": 1.51, "unit": "ng/mL"}, {"measurement": "8OHdG concentration, 90 Minutes' standing", "setting": "2′-deoxyguanosine (dG) [2]; 0.001%, Table 2, distilled water 0.15", "value": 6.04, "unit": "ng/mL"}, {"measurement": "8OHdG concentration, 90 Minutes' UV irradiation", "setting": "2′-deoxyguanosine (dG) [2]; 0.001%, Table 2, distilled water 1.23", "value": 38.36, "unit": "ng/mL"}, {"measurement": "evaluation in words: oxidation induction or antioxidant ability toward dG", "setting": "2′-deoxyguanosine (dG) [2]", "value": "very strong oxidation inducing substance"}, {"measurement": "8OHdG induction on storage", "setting": "2′-deoxyguanosine (dG) [2]; stored for a long period added to a dG solution in contact with air", "value": "a large amount of 8OHdG was induced"}]}
{"compound": "OC[C@H]1O[C@@](CO)(O[C@H]2O[C@H](CO)[C@@H](O)[C@H](O)[C@H]2O)[C@@H](O)[C@@H]1O", "note": "[Suc, sucrose]", "values": [{"measurement": "8OHdG concentration, 90 Minutes' standing", "setting": "2′-deoxyguanosine (dG) [2]; 0.1 μg/ml, Table 4, ultrapure water 0.195", "value": 0.235, "unit": "ng/mL"}, {"measurement": "8OHdG concentration, UV irradiation 60 minutes", "setting": "2′-deoxyguanosine (dG) [2]; 0.1 μg/ml, Table 4", "value": 0.299, "unit": "ng/mL"}, {"measurement": "8OHdG concentration, UV irradiation 90 minutes", "setting": "2′-deoxyguanosine (dG) [2]; 0.1 μg/ml, Table 4", "value": 0.756, "unit": "ng/mL"}, {"measurement": "8OHdG concentration, UV irradiation 120 minutes", "setting": "2′-deoxyguanosine (dG) [2]; 0.1 μg/ml, Table 4", "value": 1.073, "unit": "ng/mL"}, {"measurement": "8OHdG concentration, 90 Minutes' standing", "setting": "2′-deoxyguanosine (dG) [2]; 1 μg/ml, Table 4, ultrapure water 0.195", "value": 0.185, "unit": "ng/mL"}, {"measurement": "8OHdG concentration, UV irradiation 60 minutes", "setting": "2′-deoxyguanosine (dG) [2]; 1 μg/ml, Table 4", "value": 0.358, "unit": "ng/mL"}, {"measurement": "8OHdG concentration, UV irradiation 90 minutes", "setting": "2′-deoxyguanosine (dG) [2]; 1 μg/ml, Table 4", "value": 0.708, "unit": "ng/mL"}, {"measurement": "8OHdG concentration, UV irradiation 120 minutes", "setting": "2′-deoxyguanosine (dG) [2]; 1 μg/ml, Table 4", "value": 1.143, "unit": "ng/mL"}, {"measurement": "8OHdG concentration, 90 Minutes' standing", "setting": "2′-deoxyguanosine (dG) [2]; 10 μg/ml, Table 4, ultrapure water 0.195", "value": 0.235, "unit": "ng/mL"}, {"measurement": "8OHdG concentration, UV irradiation 60 minutes", "setting": "2′-deoxyguanosine (dG) [2]; 10 μg/ml, Table 4", "value": 0.333, "unit": "ng/mL"}, {"measurement": "8OHdG concentration, UV irradiation 90 minutes", "setting": "2′-deoxyguanosine (dG) [2]; 10 μg/ml, Table 4", "value": 0.690, "unit": "ng/mL"}, {"measurement": "8OHdG concentration, UV irradiation 120 minutes", "setting": "2′-deoxyguanosine (dG) [2]; 10 μg/ml, Table 4", "value": 1.279, "unit": "ng/mL"}, {"measurement": "8OHdG concentration, 90 Minutes' standing", "setting": "2′-deoxyguanosine (dG) [2]; 100 μg/ml, Table 4, ultrapure water 0.195", "value": 0.280, "unit": "ng/mL"}, {"measurement": "8OHdG concentration, UV irradiation 90 minutes", "setting": "2′-deoxyguanosine (dG) [2]; 100 μg/ml, Table 4", "value": 0.379, "unit": "ng/mL"}, {"measurement": "8OHdG concentration, UV irradiation 120 minutes", "setting": "2′-deoxyguanosine (dG) [2]; 100 μg/ml, Table 4", "value": 0.648, "unit": "ng/mL"}, {"measurement": "8OHdG concentration, 90 Minutes' standing", "setting": "2′-deoxyguanosine (dG) [2]; 1 mg/ml, Table 4, ultrapure water 0.195", "value": 0.300, "unit": "ng/mL"}, {"measurement": "8OHdG concentration, UV irradiation 60 minutes", "setting": "2′-deoxyguanosine (dG) [2]; 1 mg/ml, Table 4", "value": 0.127, "unit": "ng/mL"}, {"measurement": "8OHdG concentration, UV irradiation 90 minutes", "setting": "2′-deoxyguanosine (dG) [2]; 1 mg/ml, Table 4", "value": 0.309, "unit": "ng/mL"}, {"measurement": "8OHdG concentration, UV irradiation 120 minutes", "setting": "2′-deoxyguanosine (dG) [2]; 1 mg/ml, Table 4", "value": 0.364, "unit": "ng/mL"}, {"measurement": "evaluation in words: oxidation induction or antioxidant ability toward dG", "setting": "2′-deoxyguanosine (dG) [2]", "value": "Glu>Raffi≈Suc; also recorded: antioxidant ability as potent as that of Raffi"}]}
{"compound": "Oc1ccc(/C=C/c2cc(O)cc(O)c2)cc1", "note": "[RVT, Resveratol]", "values": [{"measurement": "8OHdG concentration, 90 Minutes' UV irradiation", "setting": "2′-deoxyguanosine (dG) [2]; 0.0005 ppm, Table 1, ultrapure water 0.529", "value": 1.026, "unit": "ng/mL"}, {"measurement": "8OHdG concentration, 90 Minutes' UV irradiation", "setting": "2′-deoxyguanosine (dG) [2]; 0.005 ppm, Table 1, ultrapure water 0.529", "value": 0.690, "unit": "ng/mL"}, {"measurement": "8OHdG concentration, 90 Minutes' UV irradiation", "setting": "2′-deoxyguanosine (dG) [2]; 0.05 ppm, Table 1, ultrapure water 0.529", "value": 0.571, "unit": "ng/mL"}, {"measurement": "8OHdG concentration, 90 Minutes' UV irradiation", "setting": "2′-deoxyguanosine (dG) [2]; 0.5 ppm, Table 1, ultrapure water 0.529", "value": 1.378, "unit": "ng/mL"}, {"measurement": "8OHdG concentration, 90 Minutes' UV irradiation", "setting": "2′-deoxyguanosine (dG) [2]; 5 ppm, Table 1, ultrapure water 0.529", "value": 5.582, "unit": "ng/mL"}, {"measurement": "concentration at which oxidation injury activity due to UV light is elevated (harmfulness increased)", "setting": "2′-deoxyguanosine (dG) [2]; Example 1, 90 minutes UV", "value": "≥ 0.5", "unit": "ppm"}]}
{"compound": "O=C(OC[C@H]1O[C@@H](OC(=O)c2cc(O)c(O)c(OC(=O)c3cc(O)c(O)c(O)c3)c2)[C@H](OC(=O)c2cc(O)c(O)c(OC(=O)c3cc(O)c(O)c(O)c3)c2)[C@@H](OC(=O)c2cc(O)c(O)c(OC(=O)c3cc(O)c(O)c(O)c3)c2)[C@@H]1OC(=O)c1cc(O)c(O)c(OC(=O)c2cc(O)c(O)c(O)c2)c1)c1cc(O)c(O)c(OC(=O)c2cc(O)c(O)c(O)c2)c1", "note": "[Tan, tannic acid]", "values": [{"measurement": "8OHdG concentration, 90 Minutes' standing", "setting": "2′-deoxyguanosine (dG) [2]; [4]", "value": 0.84, "unit": "ng/mL"}, {"measurement": "8OHdG concentration, 90 Minutes' UV irradiation", "setting": "2′-deoxyguanosine (dG) [2]; 1 μg/ml, Table 2, distilled water 1.23", "value": 1.04, "unit": "ng/mL"}, {"measurement": "8OHdG concentration, 90 Minutes' standing", "setting": "2′-deoxyguanosine (dG) [2]; [5]", "value": 5.64, "unit": "ng/mL"}, {"measurement": "8OHdG concentration, 90 Minutes' UV irradiation", "setting": "2′-deoxyguanosine (dG) [2]; 10 μg/ml, Table 2, distilled water 1.23", "value": 19.29, "unit": "ng/mL"}, {"measurement": "8OHdG concentration, 90 Minutes' standing", "setting": "2′-deoxyguanosine (dG) [2]; 100 μg/ml, Table 2, distilled water 0.15", "value": 54.00, "unit": "ng/mL"}, {"measurement": "8OHdG concentration, 90 Minutes' UV irradiation", "setting": "2′-deoxyguanosine (dG) [2]; 100 μg/ml, Table 2, distilled water 1.23", "value": 97.07, "unit": "ng/mL"}, {"measurement": "evaluation in words: oxidation induction or antioxidant ability toward dG", "setting": "2′-deoxyguanosine (dG) [2]", "value": "high gene injury inducing effect"}]}
{"compound": "catechin", "values": [{"measurement": "8OHdG concentration, 90 Minutes' standing", "setting": "2′-deoxyguanosine (dG) [2]; [4]", "value": 9.07, "unit": "ng/mL"}, {"measurement": "8OHdG concentration, 90 Minutes' standing", "setting": "2′-deoxyguanosine (dG) [2]; [5]", "value": 133.71, "unit": "ng/mL"}, {"measurement": "evaluation in words: oxidation induction or antioxidant ability toward dG", "setting": "2′-deoxyguanosine (dG) [2]", "value": "induces 8OHdG very strongly"}]}
